In assay [1] the test system is Bacillus cereus ŁOCK 0807. Description: MIC determination. Type of assay: cell-based. The conditions noted are these: Bacillus cereus ŁOCK 0807; 18 h. How it is done:
(§1) The antibacterial activity of tested samples was assessed against both gram-positive bacteria (Staphylococcus aureus ATCC 25923, Staphylococcus aureus ATCC 6538, Staphylococcus epidermidis ATCC 12228, Enterococcus faecalis ATCC 29212, Listeria monocytogenes ATCC 19115, Bacillus subtilis ATCC 6633, Bacillus cereus ATCC 10876) and gram-negative bacteria (Escherichia coli ATCC 10530, Salmonella typhimurium ATCC 14028). Antibacterial properties were evaluated using both the dilution method (employing DMSO and 96-well plates) and the diffusion-well method (using Mueller Hinton Agar, Merck, Germany).
(§2) The minimum inhibitory concentrations (MICs) of the tested samples were evaluated against a panel of reference microorganisms obtained from the American Type Culture Collection (ATCC), including Gram-negative bacteria (Escherichia coli ATCC 10530, Salmonella typhimurium ATCC 14028), and Gram-positive bacteria (Staphylococcus aureus ATCC 25923, Staphylococcus aureus ATCC 6538, Staphylococcus epidermidis ATCC 12228, Enterococcus faecalis ATCC 29212, Listeria monocytogenes ATCC 19115, Bacillus subtilis ATCC 6633), and one strain (Bacillus cereus ŁOCK 0807) obtained from the Pure Culture of Industrial Microorganisms of the Institute of Fermentation Technology and Microbiology ŁOCK 105 (Łódź, Poland).
(§3) The microorganism cultures with a density of 1.5 × 10^8 CFU mL^−1 (corresponding to a McFarland standard of 0.5) were plated on Mueller–Hinton Agar (Merck, Germany) following the procedures recommended by the European Committee on Antimicrobial Susceptibility Testing (EUCAST).[47] Wells measuring 10 mm in diameter were cut into the medium. The tested compounds were dissolved in a DMSO solution, which was recommended due to their chemical structures. Subsequently, 100 μL of prepared solutions containing the tested compounds at concentrations ranging from x μg mL^−1 to x μg mL^−1 were added to each well. The plates were incubated at 30 °C (for Bacillus subtilis and Bacillus cereus) or 37 °C (for other bacteria) for 18 hours. After incubation, the minimum inhibitory concentration (MIC value) was determined (the lowest concentration of the tested compounds that prevents bacterial growth) and expressed in μg mL^−1. The experiment was conducted in three independent replicates. Ciprofloxacin (Sigma Aldrich, Saint Louis, MO, USA) was used as a reference antimicrobial agent against Gram-negative bacteria, while vancomycin (Sigma Aldrich, Saint Louis, MO, USA) was used as a reference antimicrobial agent against Gram-positive bacteria.

The test system of assay [2] is Bacillus subtilis ATCC 6633. Description: MIC determination. The conditions noted are these: 18 h. Type of assay: cell-based. The protocol:
as §1, §2, §3

Assay [3] has as its system Enterococcus faecalis ATCC 29212. Put plainly: MIC determination. It counts as cell-based. Conditions: E. faecalis ATCC 29212; 18 h. How it is done:
as §1, §2, §3

The test system of assay [4] is Escherichia coli ATCC 10530. Description: MIC determination. It counts as cell-based. Conditions: Escherichia coli ATCC 10530, 18 h. How it is done: as §1, §2, §3
Assay [5] relates to Listeria monocytogenes ATCC 19115. Description: MIC determination. The conditions noted are these: Listeria monocytogenes ATCC 19115, 18 h. Type of assay: cell-based. How it is done: as §1, §2, §3
For assay [6], the system named is Salmonella typhimurium ATCC 14028. Put plainly: MIC determination. Conditions: S. typhimurium ATCC 14028; 18 h. It counts as cell-based. The protocol:
as §1, §2, §3

In assay [7] the test system is Staphylococcus aureus ATCC 25923. Description: MIC determination. Type of assay: cell-based. Conditions: S. aureus ATCC 25923, 18 h. The protocol:
as §1, §2, §3

Assay [8] has as its system Staphylococcus aureus ATCC 6538. Description: MIC determination. It counts as cell-based. Conditions: S. aureus ATCC 6538; 18 h. How it is done: as §1, §2, §3
Assay [9] relates to Staphylococcus epidermidis ATCC 12228. Description: MIC determination. Type of assay: cell-based. Conditions: S. epidermidis ATCC 12228; 18 h. The protocol:
as §1, §2, §3

The next assay deals with S. aureus ATCC 25923. Description: Diffusion-well method, inhibition zones. The conditions noted are these: 500 µg/mL, wells 10 mm. Type of assay: cell-based, Staphylococcus aureus. How it is done:
as §1
(§4) 24 hour bacterial cultures with a density of 1–2 × 10^8 CFU mL^−1 were plated (0.1 mL) on Mueller–Hinton Agar (Merck, Germany). Subsequently, wells with a diameter of 10 mm were cut out from and filled with 100 μL of the tested compound at a concentration of 10–500 μg mL^−1 (diluted in DMSO). After an 18-hour incubation at either 30 °C (for Bacillus ssp.) or 37 °C (for other tested microorganisms), the inhibition zones around the wells were measured, and the results were expressed in millimetres (Table S9 ^†).

The next assay deals with S. aureus ATCC 6538. Description: Diffusion-well method, inhibition zones. Type of assay: cell-based, Staphylococcus aureus. The conditions noted are these: 500 µg/mL, wells 10 mm. The protocol: as §1, §4
The test system of assay [10] is S. epidermidis ATCC 12228. Description: Diffusion-well method, inhibition zones. Conditions: 500 µg/mL, wells 10 mm. It counts as cell-based, Staphylococcus epidermidis. How it is done: as §1, §4
For the next assay, the system named is E. faecalis ATCC 29212. Description: Diffusion-well method, inhibition zones. Type of assay: cell-based, Enterococcus faecalis. Conditions: 500 µg/mL, wells 10 mm. The protocol:
as §1, §4

The test system of the next assay is B. cereus ŁOCK 0807. Put plainly: Diffusion-well method, inhibition zones. Type of assay: cell-based, Bacillus cereus. Conditions: 500 µg/mL, wells 10 mm.
The test system of assay [11] is L. monocytogenes ATCC 19115. Description: Diffusion-well method, inhibition zones. The conditions noted are these: 500 µg/mL, wells 10 mm. Type of assay: cell-based, Listeria monocytogenes. How it is done: as §1, §4
Another assay concerns B. subtilis ATCC 6633. Description: Diffusion-well method, inhibition zones. Type of assay: cell-based, Bacillus subtilis. Conditions: 500 µg/mL, wells 10 mm. How it is done: as §1, §4
Assay [12] concerns S. Typhimurium ATCC 14028. Description: Diffusion-well method, inhibition zones. It counts as cell-based, Salmonella typhimurium. The conditions noted are these: 500 µg/mL, wells 10 mm. The protocol: as §1, §4
The test system of assay [13] is glioblastoma LN-229 cells. Description: MTT cell viability assay. Conditions: 48 hours of incubation. Type of assay: cell-based, human. In short, it runs like this: (§5)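 Cells seeded at 2 × 10^4/well, left 24 h, then treated with compound over 1–50 μM for 48 h. Viability was read by MTT colorimetry in triplicate, and IC50 was taken as the concentration lowering viability by 50%.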
On the technique in general: Tetrazolium assays rely on reduction of a dye to a coloured formazan, in cell work by metabolically active cells.

A further assay has as its system glioblastoma U87 cells. Put plainly: MTT cell viability assay. Type of assay: cell-based, human. The conditions noted are these: 48 hours of incubation. In outline:
as §5

For assay [14], the system named is normal skin fibroblast BJ cells. Description: MTT cell viability assay. The conditions noted are these: BJ normal fibroblasts; 48 hours of incubation. Type of assay: cell-based, human. In short, it runs like this: as §5
In another assay the test system is E. coli ATCC 10530. Put plainly: Diffusion-well method, inhibition zones. Type of assay: cell-based, Escherichia coli. The conditions noted are these: 500 µg/mL, wells 10 mm. The protocol: as §1, §4

Each structure is given as a SMILES string.

By MIC is commonly meant the lowest concentration that inhibits growth of the organism. The term IC50 denotes the point on the concentration scale where inhibition reaches its midpoint. As for `NC(=NN=Cc1ccccc1)c1cncc(N2CCOCC2)n1.O.O=[N+]([O-])[O-].[Ag+]` [Complex 5, AgL5NO3 × H2O], the MIC is 50 µg/mL in assay [1]; 50 µg/mL in assay [2]; 50 µg/mL in assay [3]; > 500 µg/mL in [4]; 10 µg/mL in assay [5]; 50 µg/mL in assay [6]. The figures for the MIC in assay [7], in assay [8] and in assay [9] were 50 µg/mL, 10 µg/mL and <10 µg/mL, respectively. The Inhibition zone in the assay with S. aureus ATCC 25923 came out at 19 mm; with S. aureus ATCC 6538, 17 mm; in [10], 18 mm; in the assay on E. faecalis ATCC 29212, 17 mm; with B. cereus ŁOCK 0807, 19 mm; in assay [11] it was 19 mm. In addition, the Inhibition zone in the assay on B. subtilis ATCC 6633 was 18 mm; in assay [12], 17 mm. Further, the IC50 in [13] was > 50 µM; in the assay on glioblastoma U87 cells, 49.7 ± 3.11 µM; in assay [14], > 50 µM.

`NC(=NN=Cc1ccc([N+](=O)[O-])cc1)c1cccc(N2CCCC2)n1.NC(=NN=Cc1ccc([N+](=O)[O-])cc1)c1cccc(N2CCCC2)n1.O=[N+]([O-])[O-].[Ag+]` [Complex 4, AgL4NO3]: the MIC is 50 µg/mL in [1]; 50 µg/mL in assay [2]; 50 µg/mL in assay [3]; ≤ 10 µg/mL in [4]; < 10 µg/mL in assay [4] (listed as 4); ≤ 10 µg/mL in [5]. The MIC in assay [5] (listed as 4) was 10 µg/mL; in assay [6], 100 µg/mL; in assay [7], ≤ 10 µg/mL; in assay [7] (listed as 4) it was <10 µg/mL; in assay [8], 100 µg/mL; in assay [9] it was 50 µg/mL. Besides, the Inhibition zone in the assay on S. aureus ATCC 25923 came out at 21 mm; in the assay with S. aureus ATCC 6538, 16 mm; in assay [10], 16 mm; with E. faecalis ATCC 29212, 15 mm; in the assay on B. cereus ŁOCK 0807 it was 17 mm; in assay [11] it was 19 mm. Moreover, the figures for the Inhibition zone (in the assay with B. subtilis ATCC 6633; in the assay on E. coli ATCC 10530; in [12]) were 18 mm, 20 mm and 17 mm, respectively. Further, the results for the IC50 (in assay [13]; in the assay on glioblastoma U87 cells; in [14]) were > 50 µM, 1.22 ± 0.34 µM and > 50 µM, respectively.

The record behind these values is article PMC12150283, “Synthesis of new Ag(I) and Cd(II) hydrozanomide-based complexes with antibacterial and anticancer properties” (RSC Advances, 2025).
